Measurements taken from patent publication US11325883B2, “Functionalized N,N-dialkylamino phenyl ethers and their method of use” (Temple University—Of The Commonwealth System of Higher …, priority 2017, dated 2022).
pEC50: −log10 of the molar value.

Experiments:
[1] = tested on: Gaucher patient fibroblasts (L444P/L444P, GM08760); experiment: GPN induced calcium release phenotypic assay on Gaucher patient cells; assay type: cell-based, human; settings: for Maximal % Change in GPN Response / pEC50: Gaucher patient cells, 72 hours compound treatment; for Maximal % Change in GPN Response: GPN response with drug/without drug x100; for pEC50: Homo sapiens, Fibroblast, 12-point curve in triplicate
Source text: Phenotypic Assay: A phenotypic cellular assay utilizing lysosomal storage disorder (LSD) patient derived cells was developed to identify compounds with disease modifying activity to reverse or attenuate the disease phenotype to non-disease levels. […] This functional readout of the LSD diseased state was developed into a high throughput screening assay.
Disruption of lysosomal calcium homeostasis has been linked to the pathophysiology of lysosomal storage disorders including Gaucher disease (Lloyd-Evans, E, Morgan A J, He X, Smith D A, Elliot-Smith E, Sillence D J, Churchill G C, Schuchman E H, Galione A, Platt F M. (2008) Niemann-Pick disease type C1 is a sphingosine storage disease that causes deregulation of lysosomal calcium. Nat Med. 14(11):1247-55. Lloyd-Evans E, Platt F M. (2011) Lysosomal Ca(^2+) homeostasis: role in pathogenesis of lysosomal storage diseases. Cell Calcium. 50(2):200-205. Morgan, A J, Platt, F M, Lloyd-Evans, E and Galione, A (2011) Molecular mechanism of endolysosomal Ca^2+ signaling in health and disease. Biochem. J. 439:349-374.). Calcium release from acidic lysosomal stores can be induced by addition of Gly-Phe-β-napthylamide (GPN), a substrate of cathepsin C, which upon hydrolysis, produces osmotic lysis of lysosomes and release of calcium specifically from lysosomal acidic stores into the cytosol. The increase of intracellular calcium released from lysosomes can be detected with cell membrane permeable calcium sensitive indicators.
(§1) Cells (800 cells/well) were plated with a MultiFlo dispenser (BioTek) and cultured for 24 h at 37° C., 5% CO2. The screening compounds were then added to cells under sterile conditions and continued in culture for 72 hours. Cells were loaded with Screen Quest™ Fluo-8 No Wash Calcium mix (ATT Bio) and analyzed for changes in response to GPN. The data from each well were normalized with basal fluorescence by dividing the maximum fluorescence over the entire real time reading by the initial basal fluorescence. […] EC50 and Hill slope values are determined using a four-parameter dose-response (variable slope) equation in GraphPad Prism. The % change in GPN response is calculated as the ratio of GPN response measured in the presence of drug/GPN response measured in the absence of drug×100. […] The maximal % change in GPN response is calculated as the ratio of GPN response measured in the presence of drug/GPN response measured in the absence of drug×100.
Gaucher patient fibroblasts (Coreill Institute, GM08760) were cultured in EMEM with 15% FBS, 1% Pen/Strep at 37° C./5% CO2. Wild-type patient fibroblasts (Coriell Institute, GM 005659) were used as a control cell line. Cells are plated with a MultiFlo dispenser (800 cells/well in 30 μL of complete growth media) in black/clear bottom 384-well plates and cultured for 24 hours at 37° C., 5% CO2. Compounds of the disclosure are then added to the cells (12 point dose response curve, 150 nM to 30 uM final compound concentration using a 5.0 μL of a 7× stock solution (1.05 μM to 210 μM)) under sterile conditions and continued in culture for 72 hours at 37° C., 5% CO2. For intracellular calcium measurements, media is removed and 20 μL of calcium dye mixture (Screen Quest™ Fluo-8 No Wash Calcium mix, ATT Bioquest) is added to each well, incubated for 30 minutes at 37° C., followed by 22° C. for 30 minutes.

[2] = tested on: Wild-type patient fibroblasts (GM 005659); settings: wild type cells
Procedure: as §1
Gaucher patient fibroblasts (Coreill Institute, GM08760) were cultured in EMEM with 15% FBS, 1% Pen/Strep at 37° C./5% CO2. Wild-type patient fibroblasts (Coriell Institute, GM 005659) were used as a control cell line. […] The data from each well were normalized with basal fluorescence by dividing the maximum fluorescence over the entire real time reading by the initial basal fluorescence.

| Compound | Maximal % Change in GPN Response [1] [%] | pEC50 [1] | increase in GPN-induced calcium response [2] | increase in calcium response ([1]; compared with 0.1% DMSO treated Gaucher patient cells) [%] |
| --- | --- | --- | --- | --- |
| CCCC(C(=O)c1ccc(OCCN(C)C)cc1)c1ccccc1-c1ccc(F)cc1 (centres unmarked) [Example 6, 1-(4-(2-(dimethylamino)ethoxy)phenyl)-2-(4′-fluoro-[1,1′-biphenyl]-2-yl)pentan-1-one] | 410 | 6.37 |  |  |
| CN(C)CCOc1ccc(C(=O)Cc2ccccc2-c2ccc(F)cc2)cc1 [Example 1, 1-(4-(2-(Dimethylamino)ethoxy)phenyl)-2-(4′-fluoro-[1,1′-biphenyl]-2-yl)ethanone] | 250 | 5.44 |  |  |
| CN(C)CCOc1ccc(C(=O)Cc2ccccc2-c2ccccc2Cl)cc1 [Example 2, 2-(2′-Chloro-[1,1′-biphenyl]-2-yl)-1-(4-(2-(dimethylamino)ethoxy)phenyl)ethanone] | 160 | 5.74 |  |  |
| CN(C)CCOc1ccc(C(=O)C(CC2CC2)c2ccccc2-c2ccc(F)cc2)cc1 (centres unmarked) [Example 4, 3-cyclopropyl-1-(4-(2-(dimethylamino)ethoxy)phenyl)-2-(4′-fluoro-[1,1′-biphenyl]-2-yl)propan-1-one] | 360 | 6.32 |  |  |
| CC/C(=C(\c1ccccc1)c1ccc(OCCN(C)C)cc1)c1ccccc1 [Tamoxifen, reference compound] |  |  | 30+/−20% | 200±50 |
| CNCCOc1ccc(C(=O)C(CC(C)C)c2ccccc2-c2ccc(F)cc2)cc1 (centres unmarked) [Example 9, 2-(4′-fluoro-[1,1′-biphenyl]-2-yl)-4-methyl-1-(4-(2-(methylamino)-ethoxy)phenyl)pentan-1-one] | 617 | 6.63 |  |  |
| CCC(C(=O)c1ccc(OCCNC)cc1)c1ccccc1-c1ccc(F)cc1 (centres unmarked) [Example 7, 2-(4′-fluoro-[1,1′-biphenyl]-2-yl)-1-(4-(2-(methylamino)ethoxy)phenyl)butan-1-one] | 515 | 6.37 |  |  |
| CCCC(C(=O)c1ccc(OCCNC)cc1)c1ccccc1-c1ccc(F)cc1 (centres unmarked) [Example 8, 2-(4′-fluoro-[1,1′-biphenyl]-2-yl)-1-(4-(2-(methylamino)ethoxy)phenyl)pentan-1-one] | 330 | 6.45 |  |  |
| CC(C)CC(C(=O)c1ccc(OCCN(C)C)cc1)c1ccccc1-c1ccc(F)cc1 (centres unmarked) [Example 3, 1-(4-(2-(dimethylamino)ethoxy)phenyl)-2-(4′-fluoro-[1,1′-biphenyl]-2-yl)-4-methylpentan-1-one] | 400 | 6.73 |  |  |
| CCC(C(=O)c1ccc(OCCN(C)C)cc1)c1ccccc1-c1ccc(F)cc1 (centres unmarked) [Example 5, 1-(4-(2-(dimethylamino)ethoxy)phenyl)-2-(4′-fluoro-[1,1′-biphenyl]-2-yl)butan-1-one] | 630 | 6.58 |  |  |
